# Experimental data published in PubChem BioAssay AID1259407 (Chemical Carcinogenesis Research Information System (CCRIS), 2018).
# Calls of active or inactive are those of the source. No rule for the calls is given here.
# Test system: CCRIS mutagenicity, Ames/micronucleus/aberration tests
# Assay: CCRIS mutagenicity studies
structure (smiles),measurement,setting,value
Nc1ccc2cc3ccc(N)cc3nc2c1,mutagenic call,"Test System: AMES SALMONELLA TYPHIMURIUM, Strain/Indicator: TA98, Metabolic Activation: HAMSTER, LIVER, S-9, AROCLOR 1254, Method: STANDARD PLATE",active; positive
same,mutagenic call,"Test System: AMES SALMONELLA TYPHIMURIUM, Strain/Indicator: TA98, Metabolic Activation: HAMSTER, LIVER, S-9, Method: STANDARD PLATE",active; positive
same,mutagenic call,"Test System: AMES SALMONELLA TYPHIMURIUM, Strain/Indicator: TA98, Metabolic Activation: MOUSE, LIVER, S-9, AROCLOR 1254, Method: STANDARD PLATE",active; positive
same,mutagenic call,"Test System: AMES SALMONELLA TYPHIMURIUM, Strain/Indicator: TA98, Metabolic Activation: MOUSE, LIVER, S-9, Method: STANDARD PLATE",active; positive
same,mutagenic call,"Test System: AMES SALMONELLA TYPHIMURIUM, Strain/Indicator: TA98, Metabolic Activation: NONE, Method: FLUCTUATION (MICROTITER)",active; positive
same,mutagenic call,"Test System: AMES SALMONELLA TYPHIMURIUM, Strain/Indicator: TA98, Metabolic Activation: RAT, LIVER, S-9, AROCLOR 1254, Method: STANDARD PLATE",active; positive
same,mutagenic call,"Test System: AMES SALMONELLA TYPHIMURIUM, Strain/Indicator: TA98, Metabolic Activation: RAT, LIVER, S-9, Method: STANDARD PLATE",active; positive
same,mutagenic call,"Test System: AMES SALMONELLA TYPHIMURIUM, Strain/Indicator: TA100, Metabolic Activation: NONE, Method: STANDARD PLATE",inactive; negative
same,mutagenic call,"Test System: AMES SALMONELLA TYPHIMURIUM, Strain/Indicator: TA100, Metabolic Activation: RAT, LIVER, S-9, AROCLOR 1254, Method: STANDARD PLATE",active; positive
same,mutagenic call,"Test System: AMES SALMONELLA TYPHIMURIUM, Strain/Indicator: TA100, Metabolic Activation: RAT, LIVER, S-9, Method: STANDARD PLATE",inactive; negative
same,mutagenic call,"Test System: AMES SALMONELLA TYPHIMURIUM, Strain/Indicator: TA1535, Metabolic Activation: MOUSE, LIVER, S-9, AROCLOR 1254, Method: STANDARD PLATE",inactive; negative
same,mutagenic call,"Test System: AMES SALMONELLA TYPHIMURIUM, Strain/Indicator: TA1535, Metabolic Activation: NONE, Method: PREINCUBATION",inactive; negative
same,mutagenic call,"Test System: AMES SALMONELLA TYPHIMURIUM, Strain/Indicator: TA1535, Metabolic Activation: NONE, Method: STANDARD PLATE",inactive; negative
same,mutagenic call,"Test System: AMES SALMONELLA TYPHIMURIUM, Strain/Indicator: TA1535, Metabolic Activation: RAT, LIVER, S-9, AROCLOR 1254, Method: STANDARD PLATE",inactive; negative
same,mutagenic call,"Test System: AMES SALMONELLA TYPHIMURIUM, Strain/Indicator: TA1535, Metabolic Activation: RAT, LIVER, S-9, TETRACHLOROBIPHENYL, Method: PREINCUBATION",inactive; negative
same,mutagenic call,"Test System: AMES SALMONELLA TYPHIMURIUM, Strain/Indicator: TA1535, Metabolic Activation: RAT, LIVER, S-9, Method: STANDARD PLATE",inactive; negative
same,mutagenic call,"Test System: AMES SALMONELLA TYPHIMURIUM, Strain/Indicator: TA1537, Metabolic Activation: HAMSTER, LIVER, S-9, AROCLOR 1254, Method: STANDARD PLATE",active; positive
same,mutagenic call,"Test System: AMES SALMONELLA TYPHIMURIUM, Strain/Indicator: TA1537, Metabolic Activation: HAMSTER, LIVER, S-9, Method: STANDARD PLATE",active; positive
same,mutagenic call,"Test System: AMES SALMONELLA TYPHIMURIUM, Strain/Indicator: TA1537, Metabolic Activation: MOUSE, LIVER, S-9, AROCLOR 1254, Method: STANDARD PLATE",active; positive
same,mutagenic call,"Test System: AMES SALMONELLA TYPHIMURIUM, Strain/Indicator: TA1537, Metabolic Activation: MOUSE, LIVER, S-9, Method: STANDARD PLATE",active; positive
same,mutagenic call,"Test System: AMES SALMONELLA TYPHIMURIUM, Strain/Indicator: TA1537, Metabolic Activation: NONE, Method: FLUCTUATION (MICROTITER)",active; positive
same,mutagenic call,"Test System: AMES SALMONELLA TYPHIMURIUM, Strain/Indicator: TA1537, Metabolic Activation: NONE, Method: PREINCUBATION",active; positive
same,mutagenic call,"Test System: AMES SALMONELLA TYPHIMURIUM, Strain/Indicator: TA1537, Metabolic Activation: RAT, LIVER, S-9, AROCLOR 1254, Method: STANDARD PLATE",active; positive
same,mutagenic call,"Test System: AMES SALMONELLA TYPHIMURIUM, Strain/Indicator: TA1537, Metabolic Activation: RAT, LIVER, S-9, TETRACHLOROBIPHENYL, Method: PREINCUBATION",active; positive
same,mutagenic call,"Test System: AMES SALMONELLA TYPHIMURIUM, Strain/Indicator: TA1537, Metabolic Activation: RAT, LIVER, S-9, Method: STANDARD PLATE",active; positive
same,mutagenic call,"Test System: AMES SALMONELLA TYPHIMURIUM, Strain/Indicator: TA1538, Metabolic Activation: HAMSTER, LIVER, S-9, AROCLOR 1254, Method: STANDARD PLATE",active; positive
same,mutagenic call,"Test System: AMES SALMONELLA TYPHIMURIUM, Strain/Indicator: TA1538, Metabolic Activation: HAMSTER, LIVER, S-9, Method: STANDARD PLATE",active; positive
same,mutagenic call,"Test System: AMES SALMONELLA TYPHIMURIUM, Strain/Indicator: TA1538, Metabolic Activation: MOUSE, LIVER, S-9, AROCLOR 1254, Method: STANDARD PLATE",active; positive
same,mutagenic call,"Test System: AMES SALMONELLA TYPHIMURIUM, Strain/Indicator: TA1538, Metabolic Activation: MOUSE, LIVER, S-9, Method: STANDARD PLATE",active; positive
same,mutagenic call,"Test System: AMES SALMONELLA TYPHIMURIUM, Strain/Indicator: TA1538, Metabolic Activation: NONE, Method: PREINCUBATION",inactive; negative
same,mutagenic call,"Test System: AMES SALMONELLA TYPHIMURIUM, Strain/Indicator: TA1538, Metabolic Activation: RAT, LIVER, S-9, AROCLOR 1254, Method: STANDARD PLATE",active; positive
same,mutagenic call,"Test System: AMES SALMONELLA TYPHIMURIUM, Strain/Indicator: TA1538, Metabolic Activation: RAT, LIVER, S-9, TETRACHLOROBIPHENYL, Method: PREINCUBATION",active; positive
same,mutagenic call,"Test System: AMES SALMONELLA TYPHIMURIUM, Strain/Indicator: TA1538, Metabolic Activation: RAT, LIVER, S-9, Method: STANDARD PLATE",active; positive
same,mutagenic call,"Test System: AMES SALMONELLA TYPHIMURIUM, Strain/Indicator: TA1977, Metabolic Activation: NONE, Method: PREINCUBATION",active; positive
same,mutagenic call,"Test System: AMES SALMONELLA TYPHIMURIUM, Strain/Indicator: TA1977, Metabolic Activation: RAT, LIVER, S-9, TETRACHLOROBIPHENYL, Method: PREINCUBATION",active; positive
same,mutagenic call,"Test System: AMES SALMONELLA TYPHIMURIUM, Strain/Indicator: TA1978, Metabolic Activation: RAT, LIVER, S-9, TETRACHLOROBIPHENYL, Method: PREINCUBATION",active; positive
same,mutagenic call,"Test System: AMES SALMONELLA TYPHIMURIUM, Strain/Indicator: TA7001, Metabolic Activation: NONE, Method: FLUCTUATION (MICROTITER)",inactive; negative
same,mutagenic call,"Test System: AMES SALMONELLA TYPHIMURIUM, Strain/Indicator: TA7002, Metabolic Activation: NONE, Method: FLUCTUATION (MICROTITER)",inactive; negative
same,mutagenic call,"Test System: AMES SALMONELLA TYPHIMURIUM, Strain/Indicator: TA7003, Metabolic Activation: NONE, Method: FLUCTUATION (MICROTITER)",inactive; negative
same,mutagenic call,"Test System: AMES SALMONELLA TYPHIMURIUM, Strain/Indicator: TA7004, Metabolic Activation: NONE, Method: FLUCTUATION (MICROTITER)",inactive; negative
same,mutagenic call,"Test System: AMES SALMONELLA TYPHIMURIUM, Strain/Indicator: TA7005, Metabolic Activation: NONE, Method: FLUCTUATION (MICROTITER)",active; positive
same,mutagenic call,"Test System: AMES SALMONELLA TYPHIMURIUM, Strain/Indicator: TA7006, Metabolic Activation: NONE, Method: FLUCTUATION (MICROTITER)",inactive; negative
same,mutagenic call,"Test System: CHINESE HAMSTER OVARY, Strain/Indicator: CHO-K1-BH4 (HGPRT)/6-THIOGUANINE, Metabolic Activation: NONE, Method: SUSPENSION/PLATE",active; positive
same,mutagenic call,"Test System: CHINESE HAMSTER V-79, Strain/Indicator: V-79/6-THIOGUANINE, Metabolic Activation: NONE, Method: FLASK ASSAY",active; positive
same,mutagenic call,"Test System: E. COLI, Strain/Indicator: WP2 UVRA, Metabolic Activation: HAMSTER, LIVER, S-9, AROCLOR 1254, Method: STANDARD PLATE",inactive; negative
same,mutagenic call,"Test System: E. COLI, Strain/Indicator: WP2 UVRA, Metabolic Activation: HAMSTER, LIVER, S-9, Method: STANDARD PLATE",inactive; negative
same,mutagenic call,"Test System: E. COLI, Strain/Indicator: WP2 UVRA, Metabolic Activation: MOUSE, LIVER, S-9, Method: STANDARD PLATE",inactive; negative
same,mutagenic call,"Test System: E. COLI, Strain/Indicator: WP2 UVRA, Metabolic Activation: NONE, Method: STANDARD PLATE",inactive; negative
same,mutagenic call,"Test System: MOUSE LYMPHOMA, Strain/Indicator: L5178Y (TK+/TK-), Metabolic Activation: NONE, Method: SUSPENSION/PLATE",active; positive
